Reference: ChEMBL document CHEMBL1240419, “Synthesis and antibacterial activity of 3-O-carbamoyl derivatives of 6,11-di-O-methylerythromycin A: a novel class of acylides” (2010)
Values after ≈ are worked out from the molar mass of the structure shown.

Legend:
Assay type in all cases: functional
Haemophilus influenzae [1] = assay: Antibacterial activity against ampicillin-susceptible Haemophilus influenzae ATCC 49247 by broth microdilution method
Haemophilus influenzae [2] = assay: Antibacterial activity against ampicillin-resistant Haemophilus influenzae 3300 by broth microdilution method
Staphylococcus aureus [3] = assay: Antibacterial activity against erythromycin-susceptible Staphylococcus aureus ATCC 25923 by broth microdilution method
Staphylococcus aureus [4] = assay: Antibacterial activity against erythromycin, methicillin-resistant Staphylococcus aureus A333 by broth microdilution method
Streptococcus pneumoniae [5] = assay: Antibacterial activity against erythromycin-susceptible Streptococcus pneumoniae ATCC 49619 by broth microdilution method
Staphylococcus aureus [6] = assay: Antibacterial activity against erythromycin-resistant, methicillin-susceptible Staphylococcus aureus A265 by broth microdilution method
Streptococcus pneumoniae [7] = assay: Antibacterial activity against erythromycin-resistant Streptococcus pneumoniae 3469 by broth microdilution method

CCCNC(=O)O[C@H]1[C@H](C)[C@@H](O[C@@H]2O[C@H](C)C[C@H](N(C)C)[C@H]2O)[C@](C)(OC)C[C@@H](C)C(=O)[C@@H](C)[C@@H](OC)[C@](C)(O)[C@@H](CC)OC(=O)[C@@H]1C
MIC (Haemophilus influenzae [1]): > 64 µg/mL
MIC (Haemophilus influenzae [2]): 64 µg/mL (≈ 92.9 µM)
MIC (Staphylococcus aureus [3]): 2 µg/mL (≈ 2.9 µM)
MIC (Staphylococcus aureus [4]): > 64 µg/mL
MIC (Streptococcus pneumoniae [5]): 0.125 µg/mL (≈ 0.181 µM)
MIC (Staphylococcus aureus [6]): 1 µg/mL (≈ 1.45 µM)
MIC (Streptococcus pneumoniae [7]): 0.125 µg/mL (≈ 0.181 µM)

CCCCNC(=O)O[C@H]1[C@H](C)[C@@H](O[C@@H]2O[C@H](C)C[C@H](N(C)C)[C@H]2O)[C@](C)(OC)C[C@@H](C)C(=O)[C@@H](C)[C@@H](OC)[C@](C)(O)[C@@H](CC)OC(=O)[C@@H]1C
MIC (Haemophilus influenzae [1]): 4 µg/mL (≈ 5.69 µM)
MIC (Haemophilus influenzae [2]): 4 µg/mL (≈ 5.69 µM)
MIC (Staphylococcus aureus [3]): 1 µg/mL (≈ 1.42 µM)
MIC (Staphylococcus aureus [4]): > 64 µg/mL
MIC (Streptococcus pneumoniae [5]): 0.125 µg/mL (≈ 0.178 µM)
MIC (Staphylococcus aureus [6]): 1 µg/mL (≈ 1.42 µM)
MIC (Streptococcus pneumoniae [7]): 0.125 µg/mL (≈ 0.178 µM)

CCCCCNC(=O)O[C@H]1[C@H](C)[C@@H](O[C@@H]2O[C@H](C)C[C@H](N(C)C)[C@H]2O)[C@](C)(OC)C[C@@H](C)C(=O)[C@@H](C)[C@@H](OC)[C@](C)(O)[C@@H](CC)OC(=O)[C@@H]1C
MIC (Haemophilus influenzae [1]): 4 µg/mL (≈ 5.58 µM)
MIC (Haemophilus influenzae [2]): 4 µg/mL (≈ 5.58 µM)
MIC (Staphylococcus aureus [3]): 2 µg/mL (≈ 2.79 µM)
MIC (Staphylococcus aureus [4]): > 64 µg/mL
MIC (Streptococcus pneumoniae [5]): 0.125 µg/mL (≈ 0.174 µM)
MIC (Staphylococcus aureus [6]): 4 µg/mL (≈ 5.58 µM)
MIC (Streptococcus pneumoniae [7]): 0.25 µg/mL (≈ 0.349 µM)

CC[C@H]1OC(=O)[C@H](C)[C@@H](OC(=O)NC2CCCCC2)[C@H](C)[C@@H](O[C@@H]2O[C@H](C)C[C@H](N(C)C)[C@H]2O)[C@](C)(OC)C[C@@H](C)C(=O)[C@@H](C)[C@@H](OC)[C@]1(C)O
MIC (Haemophilus influenzae [1]): 4 µg/mL (≈ 5.49 µM)
MIC (Haemophilus influenzae [2]): 4 µg/mL (≈ 5.49 µM)
MIC (Staphylococcus aureus [3]): 8 µg/mL (≈ 11 µM)
MIC (Staphylococcus aureus [4]): > 64 µg/mL
MIC (Streptococcus pneumoniae [5]): 0.125 µg/mL (≈ 0.171 µM)
MIC (Staphylococcus aureus [6]): 2 µg/mL (≈ 2.74 µM)
MIC (Streptococcus pneumoniae [7]): 0.125 µg/mL (≈ 0.171 µM)

CC[C@H]1OC(=O)[C@H](C)[C@@H](OC(=O)NCCCOC)[C@H](C)[C@@H](O[C@@H]2O[C@H](C)C[C@H](N(C)C)[C@H]2O)[C@](C)(OC)C[C@@H](C)C(=O)[C@@H](C)[C@@H](OC)[C@]1(C)O
MIC (Haemophilus influenzae [1]): 32 µg/mL (≈ 44.5 µM)
MIC (Haemophilus influenzae [2]): 16 µg/mL (≈ 22.3 µM)
MIC (Staphylococcus aureus [3]): 8 µg/mL (≈ 11.1 µM)
MIC (Staphylococcus aureus [4]): > 64 µg/mL
MIC (Streptococcus pneumoniae [5]): 0.125 µg/mL (≈ 0.174 µM)
MIC (Staphylococcus aureus [6]): 4 µg/mL (≈ 5.56 µM)
MIC (Streptococcus pneumoniae [7]): 0.125 µg/mL (≈ 0.174 µM)

CCOCCCNC(=O)O[C@H]1[C@H](C)[C@@H](O[C@@H]2O[C@H](C)C[C@H](N(C)C)[C@H]2O)[C@](C)(OC)C[C@@H](C)C(=O)[C@@H](C)[C@@H](OC)[C@](C)(O)[C@@H](CC)OC(=O)[C@@H]1C
MIC (Haemophilus influenzae [1]): 8 µg/mL (≈ 10.9 µM)
MIC (Haemophilus influenzae [2]): 8 µg/mL (≈ 10.9 µM)
MIC (Staphylococcus aureus [3]): 8 µg/mL (≈ 10.9 µM)
MIC (Staphylococcus aureus [4]): > 64 µg/mL
MIC (Streptococcus pneumoniae [5]): 0.125 µg/mL (≈ 0.171 µM)
MIC (Staphylococcus aureus [6]): 8 µg/mL (≈ 10.9 µM)
MIC (Streptococcus pneumoniae [7]): 0.125 µg/mL (≈ 0.171 µM)

CC[C@H]1OC(=O)[C@H](C)[C@@H](OC(=O)NCCCOC(C)C)[C@H](C)[C@@H](O[C@@H]2O[C@H](C)C[C@H](N(C)C)[C@H]2O)[C@](C)(OC)C[C@@H](C)C(=O)[C@@H](C)[C@@H](OC)[C@]1(C)O
MIC (Haemophilus influenzae [1]): 16 µg/mL (≈ 21.4 µM)
MIC (Haemophilus influenzae [2]): 32 µg/mL (≈ 42.8 µM)
MIC (Staphylococcus aureus [3]): 4 µg/mL (≈ 5.35 µM)
MIC (Staphylococcus aureus [4]): > 64 µg/mL
MIC (Streptococcus pneumoniae [5]): 0.5 µg/mL (≈ 0.669 µM)
MIC (Staphylococcus aureus [6]): 4 µg/mL (≈ 5.35 µM)
MIC (Streptococcus pneumoniae [7]): 8 µg/mL (≈ 10.7 µM)

CCCCOCCCNC(=O)O[C@H]1[C@H](C)[C@@H](O[C@@H]2O[C@H](C)C[C@H](N(C)C)[C@H]2O)[C@](C)(OC)C[C@@H](C)C(=O)[C@@H](C)[C@@H](OC)[C@](C)(O)[C@@H](CC)OC(=O)[C@@H]1C
MIC (Haemophilus influenzae [1]): 32 µg/mL (≈ 42 µM)
MIC (Haemophilus influenzae [2]): 64 µg/mL (≈ 84.1 µM)
MIC (Staphylococcus aureus [3]): 4 µg/mL (≈ 5.26 µM)
MIC (Staphylococcus aureus [4]): > 64 µg/mL
MIC (Streptococcus pneumoniae [5]): 2 µg/mL (≈ 2.63 µM)
MIC (Staphylococcus aureus [6]): 16 µg/mL (≈ 21 µM)
MIC (Streptococcus pneumoniae [7]): > 64 µg/mL

CC[C@H]1OC(=O)[C@H](C)[C@@H](OC(=O)NCCCO)[C@H](C)[C@@H](O[C@@H]2O[C@H](C)C[C@H](N(C)C)[C@H]2O)[C@](C)(OC)C[C@@H](C)C(=O)[C@@H](C)[C@@H](OC)[C@]1(C)O
MIC (Haemophilus influenzae [1]): 32 µg/mL (≈ 45.4 µM)
MIC (Haemophilus influenzae [2]): 32 µg/mL (≈ 45.4 µM)
MIC (Staphylococcus aureus [3]): 4 µg/mL (≈ 5.67 µM)
MIC (Staphylococcus aureus [4]): > 64 µg/mL
MIC (Streptococcus pneumoniae [5]): 1 µg/mL (≈ 1.42 µM)
MIC (Staphylococcus aureus [6]): 16 µg/mL (≈ 22.7 µM)
MIC (Streptococcus pneumoniae [7]): 8 µg/mL (≈ 11.3 µM)

CC[C@H]1OC(=O)[C@H](C)[C@@H](OC(=O)NCc2ccco2)[C@H](C)[C@@H](O[C@@H]2O[C@H](C)C[C@H](N(C)C)[C@H]2O)[C@](C)(OC)C[C@@H](C)C(=O)[C@@H](C)[C@@H](OC)[C@]1(C)O
MIC (Haemophilus influenzae [1]): 2 µg/mL (≈ 2.75 µM)
MIC (Haemophilus influenzae [2]): 2 µg/mL (≈ 2.75 µM)
MIC (Staphylococcus aureus [3]): 2 µg/mL (≈ 2.75 µM)
MIC (Staphylococcus aureus [4]): > 64 µg/mL
MIC (Streptococcus pneumoniae [5]): 0.5 µg/mL (≈ 0.688 µM)
MIC (Staphylococcus aureus [6]): 1 µg/mL (≈ 1.38 µM)
MIC (Streptococcus pneumoniae [7]): 16 µg/mL (≈ 22 µM)

CC[C@H]1OC(=O)[C@H](C)[C@@H](OC(=O)Nc2nccs2)[C@H](C)[C@@H](O[C@@H]2O[C@H](C)C[C@H](N(C)C)[C@H]2O)[C@](C)(OC)C[C@@H](C)C(=O)[C@@H](C)[C@@H](OC)[C@]1(C)O
MIC (Haemophilus influenzae [1]): 32 µg/mL (≈ 43.8 µM)
MIC (Haemophilus influenzae [2]): 32 µg/mL (≈ 43.8 µM)
MIC (Staphylococcus aureus [3]): 32 µg/mL (≈ 43.8 µM)
MIC (Staphylococcus aureus [4]): > 64 µg/mL
MIC (Streptococcus pneumoniae [5]): 0.125 µg/mL (≈ 0.171 µM)
MIC (Staphylococcus aureus [6]): 32 µg/mL (≈ 43.8 µM)
MIC (Streptococcus pneumoniae [7]): 8 µg/mL (≈ 11 µM)

CC[C@H]1OC(=O)[C@H](C)[C@@H](OC(=O)NCc2ccccc2)[C@H](C)[C@@H](O[C@@H]2O[C@H](C)C[C@H](N(C)C)[C@H]2O)[C@](C)(OC)C[C@@H](C)C(=O)[C@@H](C)[C@@H](OC)[C@]1(C)O
MIC (Haemophilus influenzae [1]): 8 µg/mL (≈ 10.9 µM)
MIC (Haemophilus influenzae [2]): 4 µg/mL (≈ 5.43 µM)
MIC (Staphylococcus aureus [3]): 2 µg/mL (≈ 2.71 µM)
MIC (Staphylococcus aureus [4]): > 64 µg/mL
MIC (Streptococcus pneumoniae [5]): 0.125 µg/mL (≈ 0.17 µM)
MIC (Staphylococcus aureus [6]): 0.125 µg/mL (≈ 0.17 µM)
MIC (Streptococcus pneumoniae [7]): 0.125 µg/mL (≈ 0.17 µM)
